Results from patent publication US6723364B1, “Fog treatment method using a liquid composition for treating fruits and vegetables and implementing device” (Xeda International, priority 1998, dated 2004).
≈ marks a conversion by molar mass, not a printed value.

These molecules were tested on Phytophtora parasitica (assay: Fungicidal activity in vitro: mycelial growth on Cristomalt agar). Conditions: PhP; MIC expressed on the scale of Table 2.
Type: cell-based
Description: (§1) The Cristomalt medium used for the evaluations of the fungicidal activities comprises 0.1% of Cristomalt (malt extract) and 0.2% of agar.
(§2) This culture medium is, after sterilization, brought to 55° C. The terpene compound tested is then introduced in the pure form into the culture medium under warm conditions. Immediately after agitating, the medium, enriched with the terpene product, is poured into Petri dishes (diameter 9 cm, filled with 20 ml of medium). The agar-comprising medium solidifies on cooling. The Petri dishes are then inoculated with plugs, with a diameter of 6 mm, withdrawn from the edge of a culture of the tested fungus, which culture is obtained on Cristomalt medium.
(§3) Inoculation is carried out at 22° C.
(§4) The mycelial growth was determined periodically (5 to 15 days, according to the species of fungus).
(§5) The results are expressed in Table 3 below in terms of MIC, which is the content (in μg/ml) which makes it possible to obtain complete inhibition of mycelial growth.
(§6) In f act, each experiment was carried out several times, so that, for each terpene and for each species of fungus, a minimum value and a maximum value were obtained.
With `C=CCc1ccc(O)c(OC)c1` [EUGENOL, eugenol] the Inhibition grades was 7 (20-40).

Same assay, conditions: PhP; min-max range of several experiments; 22° C.; read-out: MIC (content giving complete inhibition of mycelial growth)
Work on `C=CCc1ccc(O)c(OC)c1` [EUGENOL, eugenol] yielded an MIC of 20 to 40 µg/mL (≈ 122 to 244 µM).

The molecules below were run on Alternaria alternata in the same assay as above. Conditions: AA; MIC expressed on the scale of Table 2.
Type: cell-based
Description: as §1, §2, §3, §4, §5, §6
With `C=CCc1ccc(O)c(OC)c1` [EUGENOL, eugenol] the Inhibition grades was 7 (20-40).

Same assay, conditions: Alternaria alternata; AA; min-max range of several experiments; 22° C.; read-out: MIC (content giving complete inhibition of mycelial growth)
`C=CCc1ccc(O)c(OC)c1` [EUGENOL, eugenol] showed an MIC of 20 to 40 µg/mL (≈ 122 to 244 µM).

Each molecule was assayed on Gliocladium roseum in the same assay as above. Conditions: Clonostachys rosea; GR; min-max range of several experiments; 22° C.; read-out: MIC (content giving complete inhibition of mycelial growth).
Type: cell-based
Description: as §1, §2, §3, §4, §5, §6
`C=CCc1ccc(O)c(OC)c1` [EUGENOL, eugenol] showed an MIC of 20 to 40 µg/mL (≈ 122 to 244 µM).

Same assay, conditions: GR; MIC expressed on the scale of Table 2
For `C=CCc1ccc(O)c(OC)c1` [EUGENOL, eugenol], the Inhibition grades was 7 (20-40).

These molecules were tested on Fusarium oxysporum in the same assay as above. Conditions: Fusarium oxysporum; FO; min-max range of several experiments; 22° C.; read-out: MIC (content giving complete inhibition of mycelial growth).
Type: cell-based
Description: as §1, §2, §3, §4, §5, §6
`C=CCc1ccc(O)c(OC)c1` [EUGENOL, eugenol] showed an MIC of 20 to 40 µg/mL (≈ 122 to 244 µM).

Same assay, conditions: OF; MIC expressed on the scale of Table 2
With `C=CCc1ccc(O)c(OC)c1` [EUGENOL, eugenol] the Inhibition grades was 7 (20-40).

What follows are molecules tested on Geocrichum candidum in the same assay as above. Conditions: GC; MIC expressed on the scale of Table 2.
Type: cell-based
Description: as §1, §2, §3, §4, §5, §6
`C=CCc1ccc(O)c(OC)c1` [EUGENOL, eugenol] was tested, and the Inhibition grades was 8 (10-20).

Same assay, conditions: GC; min-max range of several experiments; 22° C.; read-out: MIC (content giving complete inhibition of mycelial growth)
In the case of `C=CCc1ccc(O)c(OC)c1` [EUGENOL, eugenol], the MIC is reported as 10 to 20 µg/mL (≈ 60.9 to 122 µM).

The molecules below were run on Penicillium digitatum in the same assay as above. Conditions: PD; MIC expressed on the scale of Table 2.
Type: cell-based
Description: as §1, §2, §3, §4, §5, §6
With `C=CCc1ccc(O)c(OC)c1` [EUGENOL, eugenol] the Inhibition grades was 7 (20-40).

Same assay, conditions: Penicillium digitatum; PD; min-max range of several experiments; 22° C.; read-out: MIC (content giving complete inhibition of mycelial growth)
Molecule `C=CCc1ccc(O)c(OC)c1` [EUGENOL, eugenol] has an MIC of 20 to 40 µg/mL (≈ 122 to 244 µM).

What follows are molecules tested on Botrytis cinerea in the same assay as above. Conditions: BC; MIC expressed on the scale of Table 2.
Type: cell-based
Description: as §1, §2, §3, §4, §5, §6
For `C=CCc1ccc(O)c(OC)c1` [EUGENOL, eugenol], the Inhibition grades was 7 (20-40).

Same assay, conditions: Botrytis cinerea; BC; min-max range of several experiments; 22° C.; read-out: MIC (content giving complete inhibition of mycelial growth)
`C=CCc1ccc(O)c(OC)c1` [EUGENOL, eugenol] was tested, and the MIC was 20 to 40 µg/mL (≈ 122 to 244 µM).

These molecules were tested on Phytophtora parasitica (assay: Germination of the spores in vitro). Conditions: PhP; x = 40 μg/ml.
Type: cell-based
Description: (§7) The activity of eugenol and of isoeugenol on the germination of the spores was evaluated in vitro and compared with that of other terpenes.
(§8) The procedure of Example 4 is used to do this, except that the concentration of eugenol and of isoeugenol was set at x μg/ml in the culture media used and that 50 μl of a suspension of spores, adjusted to 100,000 spores/ml, are deposited in each Petri dish.
(§9) The same experiment was carried out starting with a terpene-free culture medium (control test).
(§10) The results were evaluated using the following assessment criteria:
(§11) +: considerable reduction in the level of spores germinated
(§12) The results obtained for 3 different concentrations of terpenes in the culture medium, namely 40 μg/ml, 80 μg/ml and 1280 μg/ml, are listed in Tables 4, 5 and 6.
With `C=CCc1ccc(O)c(OC)c1` [EUGENOL, eugenol] the “germination of the spores” value was 0.

Same assay, conditions: PhP; x = 80 μg/ml
In the case of `C=CCc1ccc(O)c(OC)c1` [EUGENOL, eugenol], the “germination of the spores” value is reported as 0.

Same assay, conditions: PhP; x = 1280 μg/ml
For `C=CCc1ccc(O)c(OC)c1` [EUGENOL, eugenol], the “germination of the spores” value was 0.

These molecules were tested on Alternaria alternata (assay: Germination of the spores in vitro). Conditions: AA; x = 40 μg/ml.
Type: cell-based
Description: as §7, §8, §9, §10, §11, §12
`C=CCc1ccc(O)c(OC)c1` [EUGENOL, eugenol] was tested, and the “germination of the spores” value was 0.

Same assay, conditions: AA; x = 80 μg/ml
In the case of `C=CCc1ccc(O)c(OC)c1` [EUGENOL, eugenol], the “germination of the spores” value is reported as 0.

Same assay, conditions: AA; x = 1280 μg/ml
For `C=CCc1ccc(O)c(OC)c1` [EUGENOL, eugenol], the “germination of the spores” value was 0.

What follows are molecules tested on Penicillium expansum (assay: Germination of the spores in vitro). Conditions: PE; x = 40 μg/ml.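 Also: ++ germination like control and 0 no spores germinated.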
Type: cell-based
Description: as §7, §8, §9, §10, §11, §12
In the case of `C=CCc1ccc(O)c(OC)c1` [EUGENOL, eugenol], the “germination of the spores” value is reported as 0.

Same assay, conditions: PE; x = 80 μg/ml
`C=CCc1ccc(O)c(OC)c1` [EUGENOL, eugenol] was tested, and the “germination of the spores” value was 0.

Same assay, conditions: PE; x = 1280 μg/ml
`C=CCc1ccc(O)c(OC)c1` [EUGENOL, eugenol] was tested, and the “germination of the spores” value was 0.

The molecules below were run on Fusarium oxysporum (assay: Germination of the spores in vitro). Conditions: FO; x = 40 μg/ml.
Type: cell-based
Description: as §7, §8, §9, §10, §11, §12
In the case of `C=CCc1ccc(O)c(OC)c1` [EUGENOL, eugenol], the “germination of the spores” value is reported as 0.

Same assay, conditions: FO; x = 80 μg/ml
`C=CCc1ccc(O)c(OC)c1` [EUGENOL, eugenol] was tested, and the “germination of the spores” value was 0.

Same assay, conditions: FO; x = 1280 μg/ml
`C=CCc1ccc(O)c(OC)c1` [EUGENOL, eugenol] was tested, and the “germination of the spores” value was 0.

What follows are molecules tested on Geocrichum candidum (assay: Germination of the spores in vitro). Conditions: GC; x = 40 μg/ml.
Type: cell-based
Description: as §7, §8, §9, §10, §11, §12
For `C=CCc1ccc(O)c(OC)c1` [EUGENOL, eugenol], the “germination of the spores” value was 0.

Same assay, conditions: GC; x = 80 μg/ml
`C=CCc1ccc(O)c(OC)c1` [EUGENOL, eugenol] was tested, and the “germination of the spores” value was 0.

Same assay, conditions: GC; x = 1280 μg/ml
`C=CCc1ccc(O)c(OC)c1` [EUGENOL, eugenol] was tested, and the “germination of the spores” value was 0.

The molecules below were run on Penicillium digitatum (assay: Germination of the spores in vitro). Conditions: PD; x = 40 μg/ml.
Type: cell-based
Description: as §7, §8, §9, §10, §11, §12
In the case of `C=CCc1ccc(O)c(OC)c1` [EUGENOL, eugenol], the “germination of the spores” value is reported as 0.

Same assay, conditions: PD; x = 80 μg/ml
With `C=CCc1ccc(O)c(OC)c1` [EUGENOL, eugenol] the “germination of the spores” value was 0.

Same assay, conditions: PD; x = 1280 μg/ml
With `C=CCc1ccc(O)c(OC)c1` [EUGENOL, eugenol] the “germination of the spores” value was 0.

What follows are molecules tested on Phlyctaena vagabonda (“Gloeosporium”) (assay: Germination of the spores in vitro). Conditions: PV; x = 40 μg/ml.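 Also: ++ germination like control and 0 no spores germinated.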
Type: cell-based
Description: as §7, §8, §9, §10, §11, §12
In the case of `C=CCc1ccc(O)c(OC)c1` [EUGENOL, eugenol], the “germination of the spores” value is reported as 0.

Same assay, conditions: PV; x = 80 μg/ml
`C=CCc1ccc(O)c(OC)c1` [EUGENOL, eugenol] was tested, and the “germination of the spores” value was 0.

Same assay, conditions: PV; x = 1280 μg/ml
With `C=CCc1ccc(O)c(OC)c1` [EUGENOL, eugenol] the “germination of the spores” value was 0.

The molecules below were run on Botrytis cinerea (assay: Germination of the spores in vitro). Conditions: BC; x = 40 μg/ml.
Type: cell-based
Description: as §7, §8, §9, §10, §11, §12
For `C=CCc1ccc(O)c(OC)c1` [EUGENOL, eugenol], the “germination of the spores” value was 0.

Same assay, conditions: BC; x = 80 μg/ml
With `C=CCc1ccc(O)c(OC)c1` [EUGENOL, eugenol] the “germination of the spores” value was 0.

Same assay, conditions: BC; x = 1280 μg/ml
For `C=CCc1ccc(O)c(OC)c1` [EUGENOL, eugenol], the “germination of the spores” value was 0.

What follows are molecules tested on Escherichia coli (assay: Bactericidal activity in vitro in LB agar medium). Conditions: Escherichia sp., 37° C., read-out: MIC (concentration needed to completely inhibit the growth of the bacteria).
Type: cell-based
Description: (§13) The bactericidal activity of eugenol and isoeugenol was evaluated in vitro and compared with that of other terpenes.
(§14) The culture medium used is the following LB medium:
(§15) Bactotryptone: 1% by weight
(§16) Yeast extract: 0.5% by weight
(§17) A suspension of bacteria at 10^6 CFU/ml was prepared in sterilized water from the LB medium. 200 μl of this bacterial suspension were added to 20 ml of presterilized LB culture medium brought to 55° C. The tested terpene is then added to the culture medium. After agitation, the medium is immediately divided among Petri dishes. The medium solidifies on cooling.
(§18) Incubation is carried out at 28° C. when the bacterium is Erwinia carotovora and at 37° C. when the bacterium is Escherichia coli.
(§19) The growth of mould in the culture medium is observed. The same experiment is carried out in the absence of terpene (control experiment).
(§20) The protocol used is that described above.
`C=CCc1ccc(O)c(OC)c1` [EUGENOL, eugenol] gave an MIC of 40 to 80 µg/mL (≈ 244 to 487 µM).

These molecules were tested on Erwinia carotovora (assay: Bactericidal activity in vitro in LB agar medium). Conditions: Concentration 20 μg/ml; 28° C.
Type: cell-based
Description: as §13, §14, §15, §16, §17, §18, §19
The results are evaluated using the following assessment scale:
++: mould growth identical to the control
+: mould present with a marked reduction in growth with respect to the control
: complete absence of growth.
The results obtained for 3 different concentrations, namely 20, 80 and 320 μg/ml, in the case of the bacterium Erwinia carotovora are summarized in Table 7.
as §20
With `C=CCc1ccc(O)c(OC)c1` [EUGENOL, eugenol] the “growth in the culture medium with respect to the control” value (“growth in the culture medium” for short) was “+”.

Same assay, conditions: Concentration 80 μg/ml; 28° C.
`C=CCc1ccc(O)c(OC)c1` [EUGENOL, eugenol] was tested, and the “growth in the culture medium” value was “−”.

Same assay, conditions: Concentration 320 μg/ml; 28° C.
For `C=CCc1ccc(O)c(OC)c1` [EUGENOL, eugenol], the “growth in the culture medium” value was “−”.

Same assay, conditions: Pectobacterium carotovorum; Erwinia sp.; 28° C.; read-out: MIC (concentration needed to completely inhibit the growth of the bacteria)
`C=CCc1ccc(O)c(OC)c1` [EUGENOL, eugenol] showed an MIC of 20 to 40 µg/mL (≈ 122 to 244 µM).

These molecules were tested on species of fungus (AA, BC, FO, GC, GR, PD, PE, PV, PhP) (assay: Fungicidal activity in vitro: total of inhibition grades over the nine species of fungus). Conditions: sum of the grades over the nine fungi.
Type: cell-based
Description: as §1, §2, §3, §4
The results obtained are analysed simply by using the assessment scale illustrated in Table 2:
The results obtained have been expressed in Table 3 using the scale in Table 2.
For `C=CCc1ccc(O)c(OC)c1` [EUGENOL, eugenol], the “Total of the degrees of inhibition” value was 63.
